The target of assay [1] is T1, GRK2 (Homo sapiens, UniProt P25098).
T1 sequence (P25098 1-689): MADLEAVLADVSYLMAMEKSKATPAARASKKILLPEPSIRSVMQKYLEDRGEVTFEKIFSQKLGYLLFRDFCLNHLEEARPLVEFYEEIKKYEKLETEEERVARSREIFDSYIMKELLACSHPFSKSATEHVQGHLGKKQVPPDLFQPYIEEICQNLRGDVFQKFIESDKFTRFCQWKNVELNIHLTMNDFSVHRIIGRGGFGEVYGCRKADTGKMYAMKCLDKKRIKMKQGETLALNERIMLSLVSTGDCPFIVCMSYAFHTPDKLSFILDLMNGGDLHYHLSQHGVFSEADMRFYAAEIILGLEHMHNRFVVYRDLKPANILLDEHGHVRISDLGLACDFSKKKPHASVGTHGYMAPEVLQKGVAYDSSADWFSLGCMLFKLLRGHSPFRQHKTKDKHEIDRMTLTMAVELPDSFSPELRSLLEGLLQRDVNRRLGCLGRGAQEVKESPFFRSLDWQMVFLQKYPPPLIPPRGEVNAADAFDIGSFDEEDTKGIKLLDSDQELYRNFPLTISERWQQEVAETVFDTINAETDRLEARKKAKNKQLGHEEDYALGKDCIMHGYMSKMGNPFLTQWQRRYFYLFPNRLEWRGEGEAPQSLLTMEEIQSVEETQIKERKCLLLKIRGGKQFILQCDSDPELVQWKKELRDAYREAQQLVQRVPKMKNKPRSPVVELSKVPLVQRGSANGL
Nature of the assay: GRK2 Degradation Assay and Western Blot in PAXF1657 cells. Conditions: read-out: Degradation Assay - 3 point: Degradation (%); for inhibition at 0.3 µM: Conc 0.3 uM; for inhibition at 1 µM: Conc 1 uM; for inhibition at 3 µM: Conc 3 uM. Further details: endogenous in cells; host or cells: PAXF1657. It is filed as cell-based. Put shortly:
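PAXF1657 cells grown to 70% confluency, then treated with compounds at 0–10 μM for 6 to 24 h at 37 °C. Lysates in PBS with 1% NP40 run on SDS-PAGE. GRK2 protein detected by western blot with β-actin as loading reference, using ECL chemiluminescence.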
In general terms: Immunoblotting shows a protein as a band on a membrane.

The test system of another assay is PAXF1657 EV. Nature of the assay: 7-day cellular proliferation assay (CellTiter-Glo), PAXF1657 EV. The assay is classed as cell-based. Conditions: proliferation, read-out: GeoMean IC50 (UM) PAXF1657 EV. In short, it runs like this: (§1)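 Seven-day growth in PAXF1657 lines engineered for GRK2 overexpression or knockout, measured by CellTiter-Glo; compounds tested at 30 μM-0.0002 μM final and replenished once at day 3.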
In general terms: ATP-based viability assays read luminescence as a measure of living cells.

The target in assay [2] is T1, GRK2. Put plainly: GRK2 Inhibition Assay (TR-FRET, Example 1). The assay is classed as biochemical. Conditions: Table 4; Example 1 assay; read-out: Enzymatic GRK2 IC50: Av IC50 GRK2. Put shortly:
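GRK2 (1 nM) pre-incubated 30 min RT with compounds in HEPES/MgCl2/DTT/Tween-20/EGTA buffer, then reacted 90 min RT with 7 μM ATP and 50 nM ULight-TopoIIα substrate. Stopped with EDTA plus Eu anti-TopoIIα antibody; TR-FRET read after 60 min.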
Background: In TR-FRET formats the signal depends on donor and acceptor labels being close together.

The next assay deals with PAXF1657 KO Clone #4. Nature of the assay: 7-day cellular proliferation assay (CellTiter-Glo), PAXF1657 KO Clone #4. It is filed as cell-based. Conditions: proliferation, read-out: GeoMean IC50 (uM) PAXF1657 KO Clone #4. Put shortly:
as §1

pIC50: −log10 of the molar value. Where a name gives a salt, the structure may show the parent alone.

For orientation: pIC50 means −log10 of the IC50, conventionally taken in molar units. As usually defined, the IC50 is the concentration needed to halve the response being measured. For `C[C@@H](NC(=O)c1cccc(NCc2nnc(-c3ccncn3)n2C)c1)c1cccc(OCCCCCOCCCOCCNc2ccc3c(c2)CN(C2CCC(=O)NC2=O)C3=O)c1` (stereo partly drawn) [Compound D171, N-((1R)-1-(3-(5-(3-(2-(2-(2,6-dioxopiperidin-3-yl)-1-oxoisoindolin-5-ylamino)ethoxy)propoxy)pentyloxy)phenyl)ethyl)-3-((4-methyl-5-(pyrimidin-4-yl)-4H-1,2,4-triazol-3-yl)methylamino)benzamide], at GRK2 [1], the inhibition at 0.3 µM was found to be 89.7%, the inhibition at 1 µM worked out at 90.6% and the inhibition at 3 µM was 76.2%. Besides, the pIC50 in the assay with PAXF1657 EV is 7.05. The negative logarithm of the IC50 (pIC50) on GRK2 [2] is 7.54. Besides, the 50% inhibitory concentration (IC50) in the assay on PAXF1657 KO Clone #4 is more than 30 µM.

Turning to `C[C@@H](NC(=O)c1cccc(NCc2nnc(-c3ccncn3)n2C)c1)c1cccc(C(=O)N2CC(N3CCN(c4ccc5c(c4)CN(C4CCC(=O)NC4=O)C5=O)CC3)C2)c1` (stereo partly drawn) [Compound D172], on GRK2 [1], the inhibition at 0.3 µM is -7.47%, the inhibition at 1 µM is -8.22% and the inhibition at 3 µM is -15.9%. Further, the pIC50 in the assay on PAXF1657 EV was 4.85. In addition, at GRK2 [2], the pIC50 was 6.98. Moreover, the IC50 in the assay with PAXF1657 KO Clone #4 was more than 30 µM.

Regarding `C[C@@H](NC(=O)c1cccc(NCc2nnc(-c3ccncn3)n2C)c1)c1ccc(OCCCN2CCN(c3ccc4c(c3)CN(C3CCC(=O)NC3=O)C4=O)CC2)cc1` (stereo partly drawn) [Compound D173], at GRK2 [1], the inhibition at 0.3 µM came out at 52.5%, the inhibition at 1 µM came to 48.5% and the inhibition at 3 µM is 14.7%. Besides, the pIC50 with PAXF1657 EV is 7.52. Besides, the pIC50 on GRK2 [2] is 7.73. Moreover, the IC50 with PAXF1657 KO Clone #4 worked out at 0.26 µM.

Take `C[C@@H](NC(=O)c1cccc(NCc2nnc(-c3ccncn3)n2C)c1)c1ccc(OCCN2CCN(c3ccc4c(c3)CN(C3CCC(=O)NC3=O)C4=O)CC2)cc1` (stereo partly drawn) [Compound D174, N-((1R)-1-(4-(2-(4-(2-(2,6-dioxopiperidin-3-yl)-1-oxoisoindolin-5-yl)piperazin-1-yl)ethoxy)phenyl)ethyl)-3-((4-methyl-5-(pyrimidin-4-yl)-4H-1,2,4-triazol-3-yl)methylamino)benzamide hydrochloride]: at GRK2 [1], the inhibition at 0.3 µM amounted to 63.6%, the inhibition at 1 µM was 50.2% and the inhibition at 3 µM is 28.3%. The pIC50 with PAXF1657 EV was more than 9.34. Moreover, on GRK2 [2], the pIC50 is 7.92. Besides, the IC50 in the assay on PAXF1657 KO Clone #4 was more than 30 µM.

Consider `C[C@@H](NC(=O)c1cccc(NCc2nnc(-c3ccncn3)n2C)c1)c1ccc(OCCCCN2CCN(c3ccc4c(c3)CN(C3CCC(=O)NC3=O)C4=O)CC2)cc1` (stereo partly drawn) [Compound D175, N-((1R)-1-(4-(4-(4-(2-(2,6-dioxopiperidin-3-yl)-1-oxoisoindolin-5-yl)piperazin-1-yl)butoxy)phenyl)ethyl)-3-((4-methyl-5-(pyrimidin-4-yl)-4H-1,2,4-triazol-3-yl)methylamino)benzamide hydrochloride], for which, at GRK2 [1], the inhibition at 0.3 µM is 87.7%, the inhibition at 1 µM stood at 89.2% and the inhibition at 3 µM came out at 82.8%. Further, in the assay on PAXF1657 EV, the pIC50 was more than 9.34. The negative logarithm of the IC50 (pIC50) on GRK2 [2] is 7.99. Besides, the IC50 in the assay with PAXF1657 KO Clone #4 is more than 30 µM.

In the case of `C[C@@H](NC(=O)c1cccc(NCc2nnc(-c3ccncn3)n2C)c1)c1cccc(OCC(=O)N2CCN(c3ccc4c(c3)CN(C3CCC(=O)NC3=O)C4=O)CC2)c1` (stereo partly drawn) [Compound D176, N-((1R)-1-(3-(2-(4-(2-(2,6-dioxopiperidin-3-yl)-1-oxoisoindolin-5-yl)piperazin-1-yl)-2-oxoethoxy)phenyl)ethyl)-3-((4-methyl-5-(pyrimidin-4-yl)-4H-1,2,4-triazol-3-yl)methylamino)benzamide], at GRK2 [1], the inhibition at 0.3 µM was 33%, the inhibition at 1 µM turned out to be 24.4% and the inhibition at 3 µM came to 10.7%. Further, the pIC50 with PAXF1657 EV was 5.10. In addition, the pIC50 at GRK2 [2] is 7.62. The half-inhibitory concentration (IC50) in the assay on PAXF1657 KO Clone #4 was more than 30 µM.

`C[C@@H](NC(=O)c1cccc(NCc2nnc(-c3ccncn3)n2C)c1)c1ccc(OCC(=O)N2CCN(c3ccc4c(c3)CN(C3CCC(=O)NC3=O)C4=O)CC2)cc1` (stereo partly drawn) [Compound D177, N-((1R)-1-(4-(2-(4-(2-(2,6-dioxopiperidin-3-yl)-1-oxoisoindolin-5-yl)piperazin-1-yl)-2-oxoethoxy)phenyl)ethyl)-3-((4-methyl-5-(pyrimidin-4-yl)-4H-1,2,4-triazol-3-yl)methylamino)benzamide]: on GRK2 [1], the inhibition at 0.3 µM is 13.2%, the inhibition at 1 µM came out at 20.9% and the inhibition at 3 µM worked out at 36.8%. Further, in the assay with PAXF1657 EV, the pIC50 was 4.57. For the same molecule, at GRK2 [2], the pIC50 was 7.99. Further, the IC50 in the assay with PAXF1657 KO Clone #4 was more than 30 µM.

As for `C[C@@H](NC(=O)c1cccc(NCc2nnc(-c3ccncn3)n2C)c1)c1cccc(OCCCCCCOCCOCCOCCCC(=O)N2CCN(c3cc4c(cc3F)C(=O)N(C3CCC(=O)NC3=O)C4=O)CC2)c1` (stereo partly drawn) [Compound D178, N-((1R)-1-(3-((6-(2-(2-(4-(4-(2-(2,6-dioxopiperidin-3-yl)-6-fluoro-1,3-dioxoisoindolin-5-yl)piperazin-1-yl)-4-oxobutoxy)ethoxy)ethoxy)hexyl)oxy)phenyl)ethyl)-3-(((4-methyl-5-(pyrimidin-4-yl)-4H-1,2,4-triazol-3-yl)methyl)amino)benzamide], on GRK2 [1], the inhibition at 0.3 µM came to 45%, the inhibition at 1 µM is 72% and the inhibition at 3 µM stood at 84%. The pIC50 with PAXF1657 EV is 6.51. Moreover, the pIC50 on GRK2 [2] was 7.94. For the same molecule, in the assay with PAXF1657 KO Clone #4, the IC50 is more than 30 µM.

Turning to `C[C@@H](NC(=O)c1cccc(NCc2nnc(-c3ccncn3)n2C)c1)c1cccc(OCCCCCCOCCOCCOCCCC(=O)N2CCN(c3ccc4c(c3)CN(C3CCC(=O)NC3=O)C4=O)CC2)c1` (stereo partly drawn) [Compound D179, N-((1R)-1-(3-((6-(2-(2-(4-(4-(2-(2,6-dioxopiperidin-3-yl)-1-oxoisoindolin-5-yl)piperazin-1-yl)-4-oxobutoxy)ethoxy)ethoxy)hexyl)oxy)phenyl)ethyl)-3-(((4-methyl-5-(pyrimidin-4-yl)-4H-1,2,4-triazol-3-yl)methyl)amino)benzamide], on GRK2 [1], the inhibition at 0.3 µM was 58%, the inhibition at 1 µM was 82% and the inhibition at 3 µM worked out at 88%. Besides, the pIC50 with PAXF1657 EV was 6.85. Also, the pIC50 at GRK2 [2] was 8.20. The IC50 in the assay with PAXF1657 KO Clone #4 was more than 30 µM.

With `C[C@@H](NC(=O)c1cccc(NCc2nnc(-c3ccncn3)n2C)c1)c1cccc(OCCCCCOCCCOCC(=O)N2CCN(c3cc4c(cc3F)C(=O)N(C3CCC(=O)NC3=O)C4=O)CC2)c1` (stereo partly drawn) [Compound D180, N-((1R)-1-(3-((5-(3-(2-(4-(2-(2,6-dioxopiperidin-3-yl)-6-fluoro-1,3-dioxoisoindolin-5-yl)piperazin-1-yl)-2-oxoethoxy)propoxy)pentyl)oxy)phenyl)ethyl)-3-(((4-methyl-5-(pyrimidin-4-yl)-4H-1,2,4-triazol-3-yl)methyl)amino)benzamide], at GRK2 [1], the inhibition at 0.3 µM was determined as 43%, the inhibition at 1 µM was 74% and the inhibition at 3 µM was determined as 85%. Also, in the assay on PAXF1657 EV, the negative logarithm of the IC50 (pIC50) is 6.09. Moreover, the negative-log IC50 (pIC50) on GRK2 [2] was 8.14. Further, in the assay with PAXF1657 KO Clone #4, the IC50 is more than 30 µM.

The record behind these values is patent US20240174637A1, “DEGRADERS OF GRK2 AND USES THEREOF” (Sonata Therapeutics, Inc., priority 2021, published 2024).
